Source: patent US4558064A, “2-Azasfiro[4.(3+N)]-3-carboxylic acid derivatives, a process for their preparation, agents containing these derivatives and their use” (Hoechst Aktiengesellschaft, priority 1982, dated 1985)

Test system: pressor response induced by angiotensin I
Experiment: suppression of the pressor response in the rat induced by 310 ng of angiotensin I
Format: in vivo
Conditions: 30 minutes after administration, 310 ng angiotensin I
Description: In animal experiments, the following effects, for example, were obtained: the suppression of the pressor response in the rat induced by 310 ng of angiotensin I was measured.
(a) i.v. administration (30 minutes after administration)
(b) i.d. administration (30 minutes after administration)

[1] = i.v. administration, dose 100 μg/kg

Row | SMILES | % inhibition of the pressor response induced by angiotensin I (i.d. administration, dose 1 mg/kg) | % inhibition of the pressor response induced by angiotensin I [1] [%] | % inhibition of the pressor response induced by angiotensin I (i.d. administration, dose 0.1 mg (so in the source))
1 | CCOC(=O)C(CCc1ccccc1)NC(C)C(=O)N1CC2(CCCC2)CC1C(=O)O (stereo not drawn) | 85-95% | 95 | –
2 | CCOC(=O)C(CCc1ccccc1)NC(C)C(=O)N1CC2(CCCCC2)CC1C(=O)O (stereo not drawn) | – | 95 | 60-70%
3 | CC(NC(CCc1ccccc1)C(=O)O)C(=O)N1CC2(CCCCCC2)CC1C(=O)O (stereo not drawn) | – | 95 | –
4 | CCOC(=O)C(CC(=O)c1ccccc1)NC(C)C(=O)N1CC2(CCCCC2)CC1C(=O)O (stereo not drawn) [N-(1-Carboethoxy-3-oxo-3-phenylpropyl)alanyl-2-azaspiro[4.5]decane-3-carboxylic acid] | – | 95 | –
